Measurements from patent publication US12215106B2, “Pharmaceutical compounds and therapeutic methods” (RUTGERS, THE STATE UNIVERSITY OF NEW JERSEY, priority 2018, dated 2025).
Counter-ions that a name gives are not always drawn.

Columns and labels:
P-gp = assay: Bi-directional Caco-2 transport assay; type: in vitro ADME; conditions: human, Caco-2, Efflux Ratio (B-A/A-B)
GBM cells = assay: Cell viability dose response in GBM cells (Vi-CELL, CellTiter-Glo); type: cell-based; conditions: compared with controls (DMSO and Temozolomide)
Experimental: Small molecules were synthesized by the Molecular Design and Synthesis laboratory, Rutgers Translational Sciences at Rutgers University, NJ, USA. To compare the effects of Exemplary Compound 14 to Comparative Example 100, cells (3×10^5/well) were seeded into the 96-well tissue culture plates and treated with different BMI1 inhibitors (from 10 nM to 10 μM) in appropriate media. Dose response curves were generated upon exposing GBM cells to different concentrations of Exemplary compound 14, Comparative Example 101, and Comparative Example 100 (0.010-10 μM) for 72 hours. Cells were counted using Beckman Coulter Vi-CELL Cell Viability Analyzer, and cell viability was confirmed by CellTiter-Glo Luminescent Cell Viability Assay (Promega, Madison, WI, USA) according to standard protocols and analyzed with a Victor 2 plate reader (Wallac, Turku, Finland). We then assessed the selectivity and potency in GBM cells vs primary GBM. Dose-response curves were generated in both spheres and monocultures and used to determine a sphere selectivity ratio (targeting Glioblastoma Initiating Cells), defined as EC50(U87)/EC50(spheres), for each compound.

SMILES | efflux ratio at 90 min, 5 μM (P-gp) | sphere selectivity ratio EC50(U87)/EC50(spheres) (GBM cells)
[2H]C1([2H])Oc2ccc(Nc3nc(-c4c(C)nc5ccccn45)cs3)cc2O1 [Compound 17, N-(benzo[d][1,3]dioxol-5-yl-2,2-d2)-4-(2-methylimidazo[1,2-c]pyridin-3-yl)thiazol-2-amine hydrochloride] | < 2 | –
COc1c(F)cc(Nc2nc(-c3c(C)nc4ccccn34)cs2)cc1F [Compound 14, hydrochloride] | – | high selectivity for glioblastoma cancer stem cells
